{
  "source": "ChEMBL document CHEMBL2150860",
  "about": "“Herbarone, a rearranged heptaketide derivative from the sea hare associated fungus Torula herbarum” (J Nat Prod, 2012)",
  "format_in_all_cases": "functional, cell-based",
  "key": {"[1]": {"tested_on": "MG-63", "experiment": "Cytotoxicity against human MG63 cells by MTT colorimetric method"}, "[2]": {"tested_on": "LoVo", "experiment": "Cytotoxicity against human LoVo cells by MTT colorimetric method"}, "[3]": {"tested_on": "A549", "experiment": "Cytotoxicity against human A549 cells by MTT colorimetric method"}},
  "data": [
    {"smiles": "COc1cccc2c1C(=O)c1c(O)c3c(c(O)c1C2=O)C[C@@](O)(C(=O)CO)C[C@@H]3O[C@H]1C[C@H](N)[C@H](O)[C@H](C)O1", "note": "[DOXORUBICIN]", "values": [
      {"measurement": "IC50", "setting": "[1]", "value": 2.7, "unit": "µM"},
      {"measurement": "IC50", "setting": "[2]", "value": 2.7, "unit": "µM"}
    ]},
    {"smiles": "COc1cc(OC)c2c(c1)C(=O)[C@@H]1C[C@@H](O)C[C@@]2(O)[C@@H]1CO", "values": [
      {"measurement": "IC50", "setting": "[1]", "value": "> 97.4", "unit": "µM"},
      {"measurement": "IC50", "setting": "[2]", "value": "> 97.4", "unit": "µM"},
      {"measurement": "IC50", "setting": "[3]", "value": "> 97.4", "unit": "µM"}
    ]}
  ]
}
